Reference: ChEMBL document CHEMBL1123770, “Systematic synthesis and biological evaluation of alpha- and beta-D-lyxofuranosyl nucleosides of the five naturally occurring nucleic acid bases” (1987)
≈ marks a conversion by molar mass, not a printed value.

Legend:
[1] = tested on: HeLa; assay: Minimum inhibitory concentration (MIC) required to reduce virus-induced cytopathogenicity by 50% against Coxsackie virus B4 in HeLa cells; format: functional; settings: Homo sapiens
[2] = tested on: Vero; assay: Minimum inhibitory concentration (MIC) required to reduce virus-induced cytopathogenicity by 50% against Reo virus-1 in African green monkey kidney (Vero B)cells; format: functional, Chlorocebus sabaeus; settings: Chlorocebus sabaeus; read-out: MIC
[3] = tested on: HeLa; assay: Minimum cytotoxic concentration (MCC) required to cause a microscopically detectable alteration of host cell morphology, when incubated with HeLa cells; format: functional; settings: Homo sapiens
[4] = tested on: Vero; assay: Minimum cytotoxic concentration (MCC) required to cause a microscopically detectable alteration of host cell morphology, when incubated with Vero B cells; format: functional; settings: Chlorocebus sabaeus
[5] = tested on: Vero; assay: Minimum inhibitory concentration (MIC) required to reduce virus-induced cytopathogenicity by 50% against Coxsackie virus B4 in African green monkey kidney (Vero B)cells; format: functional, Chlorocebus sabaeus; settings: Chlorocebus sabaeus; read-out: MIC
[6] = Minimum cytotoxic concentration (MCC) required to cause a microscopically detectable alteration of host cell morphology, when incubated with PRK cells; format: functional; settings: Oryctolagus cuniculus
[7] = tested on: Vero; assay: Minimum inhibitory concentration (MIC) required to reduce virus-induced cytopathogenicity by 50% against forest virus in African green monkey kidney (Vero B)cells; format: functional; settings: Chlorocebus sabaeus
[8] = tested on: WI-38; assay: Minimum cytotoxic concentration (MCC) required to cause a microscopically detectable alteration of host cell morphology, when incubated with WI-38 cells; format: functional; settings: Homo sapiens
[9] = tested on: WI-38; assay: Minimum inhibitory concentration (MIC) required to reduce virus-induced cytopathogenicity by 50% against Rhinovirus-1A in human diploid (WI-38)cells; format: functional
[10] = tested on: Vero; assay: Minimum inhibitory concentration (MIC) required to reduce virus-induced cytopathogenicity by 50% against Parainfluenza virus-3 in African green monkey kidney (Vero B)cells; format: functional, Chlorocebus sabaeus
[11] = organism: Oryctolagus cuniculus; assay: Minimum inhibitory concentration (MIC) required to reduce virus-induced cytopathogenicity by 50% against KOS strain of Herpes simplex virus-1 in primary rabbit kidney cells; format: functional
[12] = organism: Oryctolagus cuniculus; assay: Minimum inhibitory concentration (MIC) required to reduce virus-induced cytopathogenicity by 50% against G strain of Herpes simplex virus-2 in primary rabbit kidney cells; format: functional
[13] = tested on: Vero; assay: Minimum inhibitory concentration (MIC) required to reduce virus-induced cytopathogenicity by 50% against Sindbis virus in African green monkey kidney (Vero B)cells; format: functional; settings: Chlorocebus sabaeus
[14] = organism: Oryctolagus cuniculus; assay: Minimum inhibitory concentration (MIC) required to reduce virus-induced cytopathogenicity by 50% against Vaccinia virus in primary rabbit kidney cells; format: functional
[15] = tested on: WI-38; assay: Minimum inhibitory concentration (MIC) required to reduce virus-induced cytopathogenicity by 50% against Rhinovirus 9 in human diploid (WI-38)cells; format: functional; settings: Homo sapiens; read-out: MIC
[16] = organism: Mus musculus; assay: Number of mice dead after HSV-1 infection observed from day 12 to day 20; format: functional
[17] = organism: Mus musculus; assay: Survival rate at 20th day expressed as number of mice survived infected with HSV-1; out of 10; format: functional
[18] = organism: Mus musculus; assay: Survival rate at 20th day expressed as number of mice survived infected with HSV-2; out of 10; format: functional
[19] = Inhibitory effect on KOS strain of Herper simplex virus-1 yield, in primary rabbit kidney cell culture 40 ug/mL concentration after 48 hours.; format: functional, Oryctolagus cuniculus
[20] = Inhibitory effect on 196 strain of Herper simplex virus-2 yield, in primary rabbit kidney cell culture 40 ug/mL concentration after 24 hours.; format: functional, Oryctolagus cuniculus
[21] = Inhibitory effect on 196 strain of Herper simplex virus-2 yield, in primary rabbit kidney cell culture 400 ug/mL concentration after 24 hours.; format: functional, Oryctolagus cuniculus
[22] = tested on: WI-38 (Homo sapiens); assay: Minimum inhibitory concentration (MIC) required to reduce virus-induced cytopathogenicity by 50% against Rhinovirus-1A in human diploid (WI-38)cells
[23] = Inhibitory effect on KOS strain of Herper simplex virus-1 yield, in primary rabbit kidney cell culture at 400 ug/mL concentration after 24 hours; format: functional, Oryctolagus cuniculus
[24] = Inhibitory effect on 196 strain of Herper simplex virus-2 yield, in primary rabbit kidney cell culture 40 ug/mL concentration after 48 hours.; format: functional, Oryctolagus cuniculus
[25] = Inhibitory effect on 196 strain of Herper simplex virus-2 yield, in primary rabbit kidney cell culture 100 ug/mL concentration after 24 hours.; format: functional, Oryctolagus cuniculus
[26] = Inhibitory effect on 196 strain of Herper simplex virus-2 yield, in primary rabbit kidney cell culture 400 ug/mL concentration after 48 hours.; format: functional, Oryctolagus cuniculus
[27] = Inhibitory effect on KOS strain of Herper simplex virus-1 yield, in primary rabbit kidney cell culture at 100 ug/mL concentration after 24 hours; format: functional, Oryctolagus cuniculus
[28] = Inhibitory effect on KOS strain of Herper simplex virus-1 yield, in primary rabbit kidney cell culture 400 ug/mL concentration after 48 hours.; format: functional, Oryctolagus cuniculus
[29] = organism: Mus musculus; assay: Number of mice dead after HSV-2 infection observed from day 12 to day 20; format: functional
[30] = organism: Mus musculus; assay: Number of mice normal, without lesion after HSV-1 infection observed from day 0 to day 3; format: functional
[31] = organism: Mus musculus; assay: Number of mice normal, without lesion after HSV-1 infection observed from day 12 to day 20; format: functional
[32] = organism: Mus musculus; assay: Number of mice normal, without lesion after HSV-2 infection observed from day 0 to day 3; format: functional
[33] = Inhibitory effect on KOS strain of Herper simplex virus-1 yield, in primary rabbit kidney cell culture 100 ug/mL concentration after 48 hours.; format: functional, Oryctolagus cuniculus
[34] = organism: Mus musculus; assay: Number of mice normal, without lesion after HSV-2 infection observed from day 12 to day 20; format: functional
[35] = Inhibitory effect on 196 strain of Herper simplex virus-2 yield, in primary rabbit kidney cell culture 100 ug/mL concentration after 48 hours.; format: functional, Oryctolagus cuniculus
[36] = Inhibitory effect on KOS strain of Herper simplex virus-1 yield, in primary rabbit kidney cell culture at 40 ug/mL concentration after 24 hours; format: functional, Oryctolagus cuniculus
[37] = Chlorocebus sabaeus, read-out: MIC
[38] = Oryctolagus cuniculus, read-out: MIC

Which results are given for `Nc1ccn([C@@H]2O[C@H](CO)[C@H](O)[C@@H]2O)c(=O)n1`?
MIC [1]: > 200 µg/mL; MIC [2]: > 200 µg/mL; MCC [3]: > 200 µg/mL; MCC [4]: > 200 µg/mL; MIC [5]: > 200 µg/mL; MCC [6]: > 200 µg/mL; MIC [7]: > 200 µg/mL; MCC [8]: > 200 µg/mL; MIC [9]: > 200 µg/mL; MIC [10, 37]: > 100 µg/mL; MIC [11]: > 200 µg/mL; MIC [12, 38]: > 200 µg/mL; MIC [13]: > 100 µg/mL; MIC [14, 38]: 70 µg/mL (≈ 288 µM); MIC [15]: > 200 µg/mL

For `Cc1cn([C@H]2O[C@H](CO)[C@H](O)[C@@H]2O)c(=O)[nH]c1=O`, which MIC [1] is on record?
The MIC was greater than 400 µg/mL.

And the MIC [2]?
The MIC was greater than 200 µg/mL.

And the MCC [3]?
Its MCC is greater than 400 µg/mL.

And the MCC [4]?
The MCC was greater than 400 µg/mL.

What about the MIC [5] of the same compound?
Its MIC is greater than 400 µg/mL.

And the MCC [6]?
Its MCC is greater than 400 µg/mL.

What about the MIC [7] of the same compound?
The MIC was greater than 400 µg/mL.

And the MCC [8]?
Its MCC is greater than 400 µg/mL.

And the MIC [9]?
The MIC was greater than 400 µg/mL.

What about the MIC [10, 37] of the same compound?
The MIC was greater than 400 µg/mL.

What about the MIC [11] of the same compound?
Its MIC is greater than 400 µg/mL.

What about the MIC [12, 38] of the same compound?
The MIC was greater than 400 µg/mL.

What about the MIC [13] of the same compound?
The MIC was greater than 400 µg/mL.

What about the MIC [15] of the same compound?
The MIC was greater than 400 µg/mL.

Which MIC [1] does the source give for `Nc1ncnc2c1ncn2[C@@H]1O[C@H](CO)[C@H](O)[C@@H]1O` (stereo in doubt; 8) here?
Its MIC is greater than 400 µg/mL.

And the No. of mice [16]?
The No. of mice was 6.

What about the Survival rate [17] of the same compound?
The Survival rate was 4.

What about the MIC [2] of the same compound?
Its MIC is greater than 400 µg/mL.

And the MCC [3]?
The MCC was greater than 400 µg/mL.

And the Survival rate [18]?
The Survival rate was 3.

And the Virus yield [19]?
Its Virus yield is 7 log pfu ml-1.

And the MCC [4]?
Its MCC is greater than 400 µg/mL.

And the MIC [5]?
Its MIC is 70 µg/mL (≈ 262 µM).

What about the Virus yield [20] of the same compound?
The Virus yield was 5.4 log pfu ml-1.

What about the MCC [6] of the same compound?
The MCC was greater than 400 µg/mL.

What about the Virus yield [21] of the same compound?
The Virus yield was 3.8 log pfu ml-1.

What about the MIC [7] of the same compound?
Its MIC is greater than 400 µg/mL.

And the MCC [8]?
Its MCC is greater than 400 µg/mL.

What about the MIC [10] of the same compound?
The MIC was 70 µg/mL (≈ 262 µM).

And the MIC [22]?
Its MIC is greater than 200 µg/mL.

What about the Virus yield [23] of the same compound?
Its Virus yield is 6.2 log pfu ml-1.

What about the MIC [11] of the same compound?
Its MIC is greater than 400 µg/mL.

What about the Virus yield [24] of the same compound?
The Virus yield was 5.5 log pfu ml-1.

What about the Virus yield [25] of the same compound?
The Virus yield was 5.1 log pfu ml-1.

What about the Virus yield [26] of the same compound?
Its Virus yield is 5.1 log pfu ml-1.

And the Virus yield [27]?
Its Virus yield is 6.8 log pfu ml-1.

And the Virus yield [28]?
The Virus yield was 6.6 log pfu ml-1.

And the MIC [12]?
The MIC was 100 µg/mL (≈ 374 µM).

And the No. of mice [29]?
Its No. of mice is 7.

What about the No. of mice [30] of the same compound?
The No. of mice was 10.

What about the No. of mice [31] of the same compound?
Its No. of mice is 4.

What about the MIC [13] of the same compound?
The MIC was greater than 400 µg/mL.

And the MIC [14]?
The MIC was 70 µg/mL (≈ 262 µM).

And the No. of mice [32]?
The No. of mice was 10.

And the Virus yield [33]?
Its Virus yield is 6.7 log pfu ml-1.

And the No. of mice [34]?
Its No. of mice is 3.

And the Virus yield [35]?
The Virus yield was 5.3 log pfu ml-1.

And the Virus yield [36]?
The Virus yield was 6.8 log pfu ml-1.

And the MIC [15]?
Its MIC is greater than 200 µg/mL.

What does the source list for `O=c1ccn([C@@H]2O[C@H](CO)[C@H](O)[C@@H]2O)c(=O)[nH]1`?
MIC [1]: > 400 µg/mL; MIC [2]: > 400 µg/mL; MCC [3]: > 400 µg/mL; MCC [4]: > 400 µg/mL; MIC [5]: > 100 µg/mL; MCC [6]: > 400 µg/mL; MIC [7]: > 400 µg/mL; MCC [8]: > 400 µg/mL; MIC [9]: > 400 µg/mL; MIC [10, 37]: > 400 µg/mL; MIC [11]: > 400 µg/mL; MIC [12, 38]: > 400 µg/mL; MIC [13]: > 400 µg/mL; MIC [15]: 100 µg/mL (≈ 409 µM)

For `Nc1nc2c(ncn2[C@H]2O[C@H](CO)[C@H](O)[C@@H]2O)c(=O)[nH]1`, which MIC [1] is on record?
Its MIC is greater than 400 µg/mL.

What about the MIC [2] of the same compound?
Its MIC is greater than 400 µg/mL.

And the MCC [3]?
The MCC was greater than 400 µg/mL.

And the MCC [4]?
The MCC was greater than 400 µg/mL.

And the MIC [5]?
Its MIC is greater than 400 µg/mL.

What about the MCC [6] of the same compound?
The MCC was greater than 400 µg/mL.

What about the MIC [7] of the same compound?
Its MIC is greater than 400 µg/mL.

And the MCC [8]?
The MCC was greater than 400 µg/mL.

And the MIC [9]?
Its MIC is greater than 400 µg/mL.

What about the MIC [10, 37] of the same compound?
Its MIC is greater than 400 µg/mL.

And the MIC [11]?
Its MIC is greater than 400 µg/mL.

What about the MIC [12, 38] of the same compound?
The MIC was greater than 400 µg/mL.

What about the MIC [13] of the same compound?
Its MIC is greater than 400 µg/mL.

What about the MIC [15] of the same compound?
Its MIC is 200 µg/mL (≈ 706 µM).
